Molecules are shown by their SMILES. Active and inactive are the calls of the source. The calls are words filed in the database; no cut-off is given here.

Data set [1] deals with Mus musculus. Kind of data set: In vivo inhibition of fertility in C57BL/6 male mouse administered in diet after 7 to 9 days. In kind it is functional, organism-based.
Data set [2] concerns Mus musculus. Kind of data set: Reversible inhibition of fertility in C57BL/6 male mouse administered in diet for 2 months. The class given is functional. The following applies: TDE = time-dependent effect.
Data set [3] has as its target T1, Cation channel sperm-associated protein 1 (Mus musculus) (UniProt Q91ZR5).
T1 sequence (whole entry): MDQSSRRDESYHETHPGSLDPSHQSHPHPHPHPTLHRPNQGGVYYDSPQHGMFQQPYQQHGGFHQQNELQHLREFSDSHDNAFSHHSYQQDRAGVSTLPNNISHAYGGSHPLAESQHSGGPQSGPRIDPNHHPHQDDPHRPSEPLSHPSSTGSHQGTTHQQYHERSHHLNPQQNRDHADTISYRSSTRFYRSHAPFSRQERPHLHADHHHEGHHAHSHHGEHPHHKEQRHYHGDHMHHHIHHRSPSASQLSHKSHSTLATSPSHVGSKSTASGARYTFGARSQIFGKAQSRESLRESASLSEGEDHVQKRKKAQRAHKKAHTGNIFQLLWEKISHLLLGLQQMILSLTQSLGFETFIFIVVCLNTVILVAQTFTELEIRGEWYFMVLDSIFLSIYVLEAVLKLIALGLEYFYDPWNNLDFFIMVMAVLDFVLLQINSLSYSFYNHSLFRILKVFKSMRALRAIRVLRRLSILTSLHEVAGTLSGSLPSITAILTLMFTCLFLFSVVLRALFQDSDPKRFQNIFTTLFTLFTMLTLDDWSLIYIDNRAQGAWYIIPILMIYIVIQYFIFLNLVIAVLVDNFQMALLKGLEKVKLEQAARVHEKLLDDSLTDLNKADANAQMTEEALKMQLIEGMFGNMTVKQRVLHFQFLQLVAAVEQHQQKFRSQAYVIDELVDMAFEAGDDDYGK
Kind of data set: Inhibition of CatSper1 channel […] in 129/SvJ x C57BL/6J mouse cauda epididymal sperm assessed as reduction in sperm hyperactivity after 5 mins by single sperm motility assay.

Data set [4] concerns Mus musculus. The data set is described as follows: Reversible inhibition of fertility in C57BL/6 female mouse administered in diet for 2 months. The class given is functional. The following applies: TDE = time-dependent effect.
In data set [5] the target is T2, Cation channel sperm-associated protein 1 (Homo sapiens) (UniProt Q8NEC5).
T2 sequence (whole entry): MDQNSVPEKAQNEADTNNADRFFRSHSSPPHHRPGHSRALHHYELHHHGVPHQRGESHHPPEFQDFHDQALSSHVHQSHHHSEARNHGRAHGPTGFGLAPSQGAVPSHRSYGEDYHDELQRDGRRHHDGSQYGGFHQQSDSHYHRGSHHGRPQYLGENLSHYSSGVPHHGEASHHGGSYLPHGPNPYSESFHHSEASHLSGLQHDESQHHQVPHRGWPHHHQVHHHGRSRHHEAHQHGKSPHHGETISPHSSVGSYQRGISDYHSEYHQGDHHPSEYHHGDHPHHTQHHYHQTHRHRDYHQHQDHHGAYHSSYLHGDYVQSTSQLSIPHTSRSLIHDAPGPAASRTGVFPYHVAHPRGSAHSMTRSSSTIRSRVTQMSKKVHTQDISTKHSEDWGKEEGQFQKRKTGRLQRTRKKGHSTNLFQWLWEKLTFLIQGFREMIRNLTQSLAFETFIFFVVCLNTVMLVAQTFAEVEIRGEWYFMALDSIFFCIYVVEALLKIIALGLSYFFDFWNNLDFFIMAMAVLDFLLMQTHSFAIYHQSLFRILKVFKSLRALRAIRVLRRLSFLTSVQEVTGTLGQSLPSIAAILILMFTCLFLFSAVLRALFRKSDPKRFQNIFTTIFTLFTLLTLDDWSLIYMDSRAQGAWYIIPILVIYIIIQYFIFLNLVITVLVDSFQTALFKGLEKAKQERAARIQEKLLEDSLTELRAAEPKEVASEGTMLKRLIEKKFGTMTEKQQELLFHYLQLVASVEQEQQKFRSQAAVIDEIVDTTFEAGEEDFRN
The data set is described as follows: Inhibition of CatSper1 channel in human sperm assessed as decrease in sperm hyperactivity after 5 mins by computer-assisted sperm analysis.

The subject of data set [6] is Mus musculus. Kind of data set: In vivo inhibition of fertility in C57BL/6 female mouse administered in diet treated for 5 weeks followed by breeding of female mouse with nontreated age-matched male mouse for 4 days. The class given is functional, organism-based.
Data set [7] in a line: Toxicity in C57BL/6 male mouse assessed as effect on reproductive hormone levels administered in diet measured after prolonged compound treatment. The following applies: in vivo, po.
Data set [8] can be described thus: Toxicity in C57BL/6 female mouse assessed as effect on animal behavior administered in diet measured after prolonged compound treatment. The following applies: in vivo, po.
Data set [9] can be described thus: Toxicity in C57BL/6 male mouse assessed as effect on serum biochemistry administered in diet measured after prolonged compound treatment. Particulars: in vivo, po.
A short description of data set [10]: Toxicity in C57BL/6 female mouse assessed as effect on serum biochemistry administered in diet measured after prolonged compound treatment. The following applies: in vivo, po.
Data set [11] can be described thus: Toxicity in C57BL/6 female mouse assessed as effect on reproductive hormone levels administered in diet measured after prolonged compound treatment. The following applies: in vivo, po.
The nature of data set [12]: Toxicity in C57BL/6 male mouse assessed as effect on animal behavior administered in diet measured after prolonged compound treatment. The following applies: in vivo, po.
In data set [13] the target is T1, Cation channel sperm-associated protein 1 (Mus musculus). The data set is described as follows: Inhibition of wild type CatSper1 channel in mouse corpus epididymal sperm cells assessed decrease in Ca2+ current by whole cell patch clamp assay.
Data set [14] addresses T2, Cation channel sperm-associated protein 1 (Homo sapiens). Kind of data set: Inhibition of CatSper1 channel in human sperm assessed as sperm motility at 50 uM after 5 mins by computer-assisted sperm analysis (reference value: 68%). Also on record: scale not given: the % may be the effect or the level left.
Data set [15] shares this target. The data set is described as follows: Inhibition of CatSper1 channel in human sperm assessed as sperm hyperactivity at 50 uM after 5 mins by computer-assisted sperm analysis (reference value: 10.5%). Also on record: scale not given: the % may be the effect or the level left.
Data set [16] shares this target. Kind of data set: Inhibition of CatSper1 channel in human sperm assessed as sperm motility at 1 uM after 5 mins by computer-assisted sperm analysis (reference value: 68%). Also noted: scale not given: the % may be the effect or the level left.
The target of data set [17] is T1, Cation channel sperm-associated protein 1 (Mus musculus). The data set is described as follows: Inhibition of CatSper1 currents in mouse spermatozoa isolated from corpus epididymis at 20 uM by whole cell patch clamp assay.
The target of data set [18] is T2, Cation channel sperm-associated protein 1 (Homo sapiens). Kind of data set: Inhibition of CatSper1 channel in human sperm assessed as sperm hyperactivity at 1 uM after 5 mins by computer-assisted sperm analysis (reference value: 10.5%). Also noted: scale not given: the % may be the effect or the level left.

Take `Cc1conc1C(=O)c1no[n+]([O-])c1C(=O)c1nocc1C`: the inhibition result with Mus musculus [1] is “Dose-dependent effect”; in the data set with Mus musculus [2], “Tde”; in data set [3], “Dose-dependent effect”; with Mus musculus [4] it was “Tde”. Moreover, the inhibition entry (in data set [5]; with Mus musculus [6]; in data set [13]) was “Active” each time. The Activity result in [7], in data set [8], in [9], in data set [10], in data set [11] and in [12] was “Non-Toxic” each time.

For the molecule `O=C(c1cccs1)c1no[n+]([O-])c1C(=O)c1cccs1`, the inhibition entry was “Dose-dependent effect” with Mus musculus [1], “Tde” in the data set with Mus musculus [2], “Dose-dependent effect” in data set [3] and “Tde” in the data set on Mus musculus [4]. The Activity in [14] is 70%; in data set [15], 1.6%; in [7], “Non-Toxic”; in data set [8], “Non-Toxic”; in data set [9], “Non-Toxic”; in data set [10], “Non-Toxic”. The Activity result in data set [11] was “Non-Toxic”; in [16], 59%; in [18], 6.2%; in [12], “Non-Toxic”. The inhibition result (in the data set on Mus musculus [6]; in data set [17]; in data set [13]) was “Active” in each case.

For `O=C(c1ccccc1)c1no[n+]([O-])c1C(=O)c1ccccc1`, the inhibition result is “Dose-dependent effect” with Mus musculus [1], “Tde” with Mus musculus [2], “Dose-dependent effect” in data set [3] and “Tde” in the data set on Mus musculus [4]. Besides, the inhibition entry (in the data set on Mus musculus [6]; in [13]) was “Active” each time. Besides, the Activity entry in data set [7], in data set [8], in [9], in data set [10], in data set [11] and in [12] was “Non-Toxic” in each case.

Consider `CC(C)(C)C(=O)c1no[n+]([O-])c1C(=O)C(C)(C)C`, for which the inhibition entry in the data set on Mus musculus [1] was “Dose-dependent effect”; with Mus musculus [2] it was “Tde”; in data set [3] it was “Dose-dependent effect”; in the data set on Mus musculus [4], “Tde”. Also, the inhibition result (in [5]; in the data set on Mus musculus [6]; in [13]) was “Active” each time. Besides, the Activity result in data set [7], in data set [8], in data set [9], in data set [10], in data set [11] and in data set [12] was “Non-Toxic” each time.

For `O=C(c1ccc(Cl)c(Cl)c1)c1no[n+]([O-])c1C(=O)c1ccc(Cl)c(Cl)c1`, the inhibition result was “Dose-dependent effect” with Mus musculus [1], “Tde” with Mus musculus [2], “Dose-dependent effect” in data set [3] and “Tde” in the data set on Mus musculus [4]. In addition, the inhibition result (in data set [5]; in the data set on Mus musculus [6]; in [13]) was “Active” each time. The Activity result in data set [7], in [8], in data set [9], in [10], in [11] and in [12] was “Non-Toxic” throughout.
